Laboratory results reported in PMC7619385 (ACS infectious diseases, 2025).
Like-named read-outs stand apart in the source and are kept apart here.

Legend:
[1] = test system: L. mexicana promastigotes; test: Promastigote viability (Alamar Blue/resazurin); assay type: cell-based; details: Leishmania mexicana
Method: Next, we evaluated GZD824 ability to reduce the viability of L. mexicana promastigotes by monitoring the reduction of resazurin (Alamar Blue).[31]
L. mexicana (strain MNYC/BZ/62/M379) promastigotes were cultivated in medium 199 (M199) (Earle’s Salts - Gibco) supplemented with 10% (v/v) heat-inactivated fetal calf serum (HIFCS – Cultilab) and 1% Penicillin/Streptomycin solution (Sigma-Aldrich) at 26 °C. Phenotypic drug response assays in null mutant and point-mutation mutant lines were performed in HOMEM supplemented with 10% (v/v) heat-inactivated fetal calf serum (HIFCS – Gibco). THP-1 monocytes were differentiated in adherent macrophages with 50 ng of PMA for 72 h at 37 °C and 5% CO2 before infection with stationary phase promastigotes (ratio 10 promastigotes:1 macrophage) for 6 h, followed by washing to remove non-internalized Leishmania. Infected macrophages were incubated at 34 °C and 5% CO2 for 48 h in RPMI (Gibco) supplemented with 10% HIFCS and 1% Penicillin/Streptomycin solution.
For evaluation of drug effect on promastigote and uninfected macrophage viability, cells were cultivated in the presence of test compounds for 24 h and incubated with 10% AlamarBlue™ Cell Viability Reagent (ThermoFisher) for 24 h before measuring fluorescence at λex 540 nm/λem 590 nm. Untreated cells (1% DMSO) were set as 100 % viable cells. Intracellular amastigotes were treated with compounds for 48 h. Slides with paraformaldehyde-fixed and DAPI-stained cells were imaged on a Zeiss AxioImager microscope – at least 200 macrophages per drug concentration and DMSO control. Experiments were performed in duplicate. The total number of amastigotes was normalized by the number of macrophages counted. For EC50 determination, the data was fitted to the sigmoidal dose-response (variable slope) equation in GraphPad Prism (v.9.1.0).

[2] = test system: THP-1-derived macrophages; details: human, 24 h, 100 µM
Method: For evaluation of drug effect on promastigote and uninfected macrophage viability, cells were cultivated in the presence of test compounds for 24 h and incubated with 10% AlamarBlue™ Cell Viability Reagent (ThermoFisher) for 24 h before measuring fluorescence at λex 540 nm/λem 590 nm. Untreated cells (1% DMSO) were set as 100 % viable cells. […] Experiments were performed in duplicate.

[3] = test system: L. mexicana intracellular amastigotes; test: Intracellular amastigote viability in THP-1 macrophages (DAPI counting); assay type: cell-based; details: Leishmania mexicana, macrophage-internalized amastigotes, 48 h
Method: L. mexicana (strain MNYC/BZ/62/M379) promastigotes were cultivated in medium 199 (M199) (Earle’s Salts - Gibco) supplemented with 10% (v/v) heat-inactivated fetal calf serum (HIFCS – Cultilab) and 1% Penicillin/Streptomycin solution (Sigma-Aldrich) at 26 °C. […] THP-1 monocytes were differentiated in adherent macrophages with 50 ng of PMA for 72 h at 37 °C and 5% CO2 before infection with stationary phase promastigotes (ratio 10 promastigotes:1 macrophage) for 6 h, followed by washing to remove non-internalized Leishmania. Infected macrophages were incubated at 34 °C and 5% CO2 for 48 h in RPMI (Gibco) supplemented with 10% HIFCS and 1% Penicillin/Streptomycin solution.

[4] = test system: L. mexicana T7/Cas9 Δclk1, Δclk2 and Cys172Ala LmxCLK1 lines; test: Viability of T7/Cas9 null mutant and cysteine point-mutant lines; assay type: cell-based, Leishmania mexicana; details: 96 h, versus parental T7/Cas9 line
Source text: Data represent mean ± SD of four independent experiments performed in triplicate. […] Data represent mean ± SD of two independent experiments performed in duplicate. […] Data represent mean ± SD of two independent experiments performed in triplicate. […] Values are mean ± SEM.

[5] = test system: T790M mutant form of EGFR; details: cited from earlier work
[6] = test system: LmxCLK1-overexpressing L. mexicana; test: microbe, parasite or virus in culture; assay type: cell-based, Leishmania mexicana
[7] = 48 h compound exposure, read-out: EC50 promastigote viability

Row | Compound | EC50 [1, 7] [µM] | Reduction in macrophage viability [2] | EC50 [3] [µM] | EC50 ([1]; wild-type comparator of the overexpression experiment (Figure 6D), read-out: EC50 wild-type parasites) [µM] | Sensitivity of Δclk1 line [4] | Selectivity for T790M mutant EGFR compared to wild-type enzyme [5] | EC50 ([6]; Leishmania mexicana, read-out: EC50 LmxCLK1-overexpressing parasites) [µM] | Reduction of parasite sensitivity by LmxCLK1 overexpression ([6]; compared to wild-type parasites)
1 | Cc1ccc(C(=O)Nc2ccc(CN3CCN(C)CC3)c(C(F)(F)F)c2)cc1C#Cc1cnc2[nH]ncc2c1 [GZD824] | 33 | – | – | – | – | – | – | –
2 | C=CC(=O)Nc1cccc(Sc2nc(Nc3ccc(N4CCN(C)CC4)cc3)ncc2Cl)c1 [WZ8040] | 7.9 | ~ 15% | 2.1 | 5.6 | significantly enhanced sensitivity | over 10 fold | 17.6 | approximately 3 fold
